Data as given in patent US20240199605A1, “SMALL MOLECULAR INHIBITORS OF NF-kB INDUCING KINASE” (Janssen Pharmaceutica NV, priority 2019, published 2024).

How the values were obtained:
[1] = test system: p-IKKα levels in L363 (NIK translocated multiple myeloma) cells; assay: Effect of compounds on p-IKKα levels in L363 cells (AlphaLISA SureFire Ultra); format: cell-based, human; conditions: Homo sapiens, L-363, 6 h, BAFF stimulated, MG132, 6 h, average of values, read-out: Assay 2 IC50
In short: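 Inhibition of p-IKKα (Ser176/180) read by AlphaLISA after 6 h, 37 °C compound exposure (11-point 1:3 series, 0.3% DMSO) of L363 cells pre-incubated overnight ± 250 ng/ml BAFF and plated ± BAFF ± 10 μM MG132. Normalised to BAFF/MG132/DMSO and unstimulated controls; IC50 by sigmoidal fitting, duplicates.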

[2] = target: recombinant human NF-kappaB-inducing kinase (NIK/MAP3K14) (Homo sapiens (Human), UniProt Q99558); assay: Inhibition of auto-phosphorylation of recombinant human NIK/MAP3K14 (AlphaScreen); format: biochemical; conditions: NIK auto-phosphorylation, 5 μM ATP, 1 nM NIK, 2 h at 25° C.; average of values
recombinant human NF-kappaB-inducing kinase (NIK/MAP3K14), sequence (Q99558 whole entry): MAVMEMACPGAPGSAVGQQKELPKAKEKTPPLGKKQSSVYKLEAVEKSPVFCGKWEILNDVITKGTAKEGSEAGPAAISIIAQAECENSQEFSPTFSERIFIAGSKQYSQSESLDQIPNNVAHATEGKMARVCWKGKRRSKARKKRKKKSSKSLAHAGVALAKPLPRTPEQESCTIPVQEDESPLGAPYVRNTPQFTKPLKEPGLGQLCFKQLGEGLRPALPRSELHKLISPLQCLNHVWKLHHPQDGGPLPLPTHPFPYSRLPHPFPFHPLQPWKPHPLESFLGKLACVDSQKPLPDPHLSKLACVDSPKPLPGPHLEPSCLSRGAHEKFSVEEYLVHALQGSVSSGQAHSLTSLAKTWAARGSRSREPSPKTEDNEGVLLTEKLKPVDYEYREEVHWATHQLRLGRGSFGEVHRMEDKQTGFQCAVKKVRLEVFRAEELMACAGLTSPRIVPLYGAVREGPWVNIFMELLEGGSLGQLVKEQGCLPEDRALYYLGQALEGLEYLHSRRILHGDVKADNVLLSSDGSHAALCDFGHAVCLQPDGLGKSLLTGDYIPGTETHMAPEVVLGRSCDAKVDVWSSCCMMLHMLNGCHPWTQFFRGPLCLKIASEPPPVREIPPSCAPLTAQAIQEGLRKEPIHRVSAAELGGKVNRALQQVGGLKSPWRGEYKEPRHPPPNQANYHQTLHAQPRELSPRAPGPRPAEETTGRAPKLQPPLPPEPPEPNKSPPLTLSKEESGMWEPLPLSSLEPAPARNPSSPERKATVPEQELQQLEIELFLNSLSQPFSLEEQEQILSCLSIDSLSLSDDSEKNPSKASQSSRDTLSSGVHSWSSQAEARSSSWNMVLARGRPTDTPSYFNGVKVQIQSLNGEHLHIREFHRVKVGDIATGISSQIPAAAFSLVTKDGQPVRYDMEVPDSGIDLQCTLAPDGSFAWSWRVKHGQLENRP
In short: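 AlphaScreen read-out (anti-phospho-IKK Ser176/180 antibody, Protein A acceptor and glutathione donor beads) of NIK auto-phosphorylation. Reaction: 1 nM enzyme, 5 μM ATP, Tris pH 7.5 buffer with Mg2+ and vanadate, 2 h at 25° C., final DMSO 0.7%. IC50 came from a sigmoidal curve fit.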

IC50 [1] | IC50 [2] | SMILES
0.28 µM | 0.001 µM | Cc1nc(N)c2nc(-c3cccc(C#CC(C)(O)c4c[nH]cn4)c3)ccc2n1 (racemic) [Example 202, racemic-4-(3-(4-Amino-2-methylpyrido[3,2-d]pyrimidin-6-yl)phenyl)-2-(1H-imidazol-4-yl)but-3-yn-2-ol]
0.13 µM | 0.0013 µM | CN1CC[C@@](O)(C#Cc2cccc(N3CCc4ncnc(N)c4C3)c2)C1=O [Example 159, (R)-3-((3-(4-Amino-7,8-dihydropyrido[4,3-d]pyrimidin-6(5H)-yl)phenyl)ethynyl)-3-hydroxy-1-methylpyrrolidin-2-one]
0.0099 µM | ≤ 0.0005 µM | Cc1ccc(C#C[C@]2(O)CCc3cccnc32)cc1-c1nc2c(N)ncnc2s1 [Example 184, (R)-7-[2-[3-(7-Aminothiazolo[5,4-d]pyrimidin-2-yl)-4-methyl-phenyl]ethynyl]-5,6-dihydrocyclopenta[b]pyridin-7-ol]
0.54 µM | 0.023 µM | CCNc1ncnc2ccc(-c3cccc(C#C[C@]4(O)CCN(C)C4=O)c3)nc12 [Example 227, (R)-3-((3-(4-(Ethylamino)pyrido[3,2-d]pyrimidin-6-yl)phenyl)ethynyl)-3-hydroxy-1-methylpyrrolidin-2-one]
> 5 µM | 0.62 µM | Cc1c(C#C[C@]2(O)CCN(C)C2=O)cccc1-c1nc2c(N)ncnc2s1 [Example 154, (R)-3-((3-(7-Aminothiazolo[5,4-d]pyrimidin-2-yl)-2-methylphenyl)ethynyl)-3-hydroxy-1-methylpyrrolidin-2-one]
0.205 µM | 0.0056 µM | [2H]c1nc(N)c2nc(-c3cccc(C#C[C@]4(O)CCN(C)C4=O)c3)cc(CN)c2n1 [Example 282, (R)-3-((3-(4-Amino-8-(aminomethyl)pyrido[3,2-d]pyrimidin-6-yl-2-d)phenyl)ethynyl)-3-hydroxy-1-methylpyrrolidin-2-one]
0.042 µM | 0.0007 µM | CN1CC[C@@](O)(C#Cc2cccc(-c3ncc4c(-c5ccccc5)cnc(N)c4n3)c2)C1=O [Example 121, (R)-3-((3-(8-Amino-5-phenylpyrido[3,4-d]pyrimidin-2-yl)phenyl)ethynyl)-3-hydroxy-1-methylpyrrolidin-2-one]

More lines, now with the values behind:

SMILES | IC50 [1] | IC50 [2]
CN1CC[C@@](O)(C#Cc2ccc(OC(F)(F)F)c(-c3ccc4ncnc(N)c4n3)c2)C1=O [Example 271, (R)-3-((3-(4-Aminopyrido[3,2-d]pyrimidin-6-yl)-4-(trifluoromethoxy)phenyl)ethynyl)-3-hydroxy-1-methylpyrrolidin-2-one] | 0.044 µM | 0.0042 µM
CN1CC[C@@](O)(C#Cc2cccc(-c3cc(Cl)c4ncnc(N)c4c3)c2)C1=O [Example 117, (R)-3-((3-(4-Amino-8-chloroquinazolin-6-yl)phenyl)ethynyl)-3-hydroxy-1-methylpyrrolidin-2-one] | 0.033 µM | ≤ 0.0005 µM
CN1CC[C@@](O)(C#Cc2cccc(-c3ccc4nc[nH]c(=O)c4n3)c2)C1=O [Example 221, (R)-6-(3-((3-Hydroxy-1-methyl-2-oxopyrrolidin-3-yl)ethynyl)phenyl)pyrido[3,2-d]pyrimidin-4(3H)-one] | > 5 µM | 0.63 µM
CN1CC[C@@](O)(C#Cc2cccc(-c3cc(Br)c4ncnc(N)c4n3)c2)C1=O [Example 253, (R)-3-((3-(4-Amino-8-bromopyrido[3,2-d]pyrimidin-6-yl)phenyl)ethynyl)-3-hydroxy-1-methylpyrrolidin-2-one] | 0.0051 µM | 0.0004 µM
Cc1nc(-c2cccc(C#C[C@@]3(O)CCN(C)C3=O)c2)nc2c(N)ncnc12 [Example 5, (S)-3-((3-(8-Amino-4-methylpyrimido[5,4-d]pyrimidin-2-yl)phenyl)ethynyl)-3-hydroxy-1-methylpyrrolidin-2-one] | 1.56 µM | 0.23 µM
CN1CC[C@@](O)(C#Cc2cccc(-c3cc(N4CC5(C4)CC5(F)F)c4ncnc(N)c4n3)c2)C1=O [Example 307, (R)-3-[2-[3-[4-Amino-8-(2,2-difluoro-5-azaspiro[2.3]hexan-5-yl)pyrido[3,2-d]pyrimidin-6-yl]phenyl]ethynyl]-3-hydroxy-1-methyl-pyrrolidin-2-one] | 0.04 µM | 0.0016 µM
CN1CC[C@](C#Cc2cccc(-c3ccc4ncnc(N)c4n3)c2)(C(F)F)C1=O [Example 204, (R)-3-((3-(4-Aminopyrido[3,2-d]pyrimidin-6-yl)phenyl)ethynyl)-3-(difluoromethyl)-1-methylpyrrolidin-2-one] | 1.06 µM | 0.021 µM
Nc1ncnc2cnc(-c3cccc(C#C[C@]4(O)CCc5cccnc54)c3)nc12 [Example 144, (R)-7-((3-(8-Aminopyrimido[5,4-d]pyrimidin-2-yl)phenyl)ethynyl)-6,7-dihydro-5H-cyclopenta[b]pyridin-7-ol] | > 5 µM | 2.29 µM
Cc1ccc(C#C[C@]2(O)CCN(CC(F)(F)F)C2=O)cc1-c1ccc2ccnc(N)c2c1 [Example 77, (R)-3-[2-[3-(1-Amino-7-isoquinolyl)-4-methyl-phenyl]ethynyl]-3-hydroxy-1-(2,2,2-trifluoroethyl)pyrrolidin-2-one] | > 5 µM | > 5 µM
Cc1nnc([C@](C)(O)C#Cc2ccc(C)c(-c3ncc4ccnc(N)c4n3)c2)o1 [Example 74, (R)-4-(3-(8-Aminopyrido[3,4-d]pyrimidin-2-yl)-4-methylphenyl)-2-(5-methyl-1,3,4-oxadiazol-2-yl)but-3-yn-2-ol] | 2.95 µM | 0.056 µM
Cc1cnc(N)c2nc(-c3cccc(C#C[C@]4(O)CCN(C)C4=O)c3)ncc12 [Example 39, (R)-3-((3-(8-Amino-5-methylpyrido[3,4-d]pyrimidin-2-yl)phenyl)ethynyl)-3-hydroxy-1-methylpyrrolidin-2-one] | 0.009 µM | ≤ 0.0005 µM
Nc1nccc2cnc(-c3cccc(C#CC4(O)CCCC4)c3)nc12 [Example 33, 1-[2-[3-(8-Aminopyrido[3,4-d]pyrimidin-2-yl)phenyl]ethynyl]cyclopentanol] | 0.62 µM | 0.0045 µM
CC1(C)CC[C@](O)(C#Cc2cccc(-c3ccc4ncnc(N)c4n3)c2)C1=O [Example 132, (S)-2-[2-[3-(4-Aminopyrido[3,2-d]pyrimidin-6-yl)phenyl]ethynyl]-2-hydroxy-5,5-dimethyl-cyclopentanone] | 0.73 µM | 0.046 µM
CN1CC[C@@](O)(C#Cc2cccc(-c3ccc4ccnc(N5CCC5)c4n3)c2)C1=O [Example 233, (R)-3-((3-(8-(Azetidin-1-yl)-1,7-naphthyridin-2-yl)phenyl)ethynyl)-3-hydroxy-1-methylpyrrolidin-2-one] | > 5 µM | 0.52 µM
CC1(C)CC[C@@](O)(C#Cc2cccc(-c3ccc4ncnc(N)c4n3)c2)C1=O [Example 131, (R)-2-[2-[3-(4-Aminopyrido[3,2-d]pyrimidin-6-yl)phenyl]ethynyl]-2-hydroxy-5,5-dimethyl-cyclopentanone] | 0.047 µM | ≤ 0.0005 µM
CN1CC[C@@](O)(C#Cc2cccc(-c3cnc4ncnc(N)c4n3)c2)C1=O [Example 15, (R)-3-[2-[3-(4-Aminopteridin-6-yl)phenyl]ethynyl]-3-hydroxy-1-methyl-pyrrolidin-2-one] | 0.05 µM | 0.0009 µM
